For data set [1], the target named is DNA-dependent protein kinase catalytic subunit (Homo sapiens, UniProt P78527). The experiment in a line: Inhibition of DNA-PK in human Jurkat cell lysates at 0.3 uM in presence of biotinylated ADP by KiNativ profiling based mass spectrometry. The class given is subcellular.
Data set [2] in a line: Oral bioavailability in Sprague-Dawley rat at 20 mg/kg formulated as suspension in 0.5% methocel and 0.02% SLS measured for 24 hrs by reverse phase liquid chromatography coupled to mass spectrometry. The class given is ADME, organism-based. The following applies: in vivo.
Data set [3] is described as follows: Toxicity in BALB/c mouse assessed as late stage erythroblasts in bone marrow at 10 mg/kg, po qd for 3 days and 4 days off intermittent dosing for 4 cycles by flow cytometry. The class given is organism-based. To be noted: in vivo, 672 h, time 28 day. In general terms: In flow cytometry, cells or beads pass a laser one at a time.
Data set [4] in a line: Clearance in mouse liver microsomes at 1 uM in presence of NADPH by ESI/LC-MS/MS analysis. The format is ADME, Microsome. The following applies: read-out: CLH. In general terms: Microsomes from liver hold many membrane-bound enzymes, among them those of drug oxidation.
Data set [5] in a line: Toxicity in NOD-SCID mouse xenografted with human Granta-519 cells assessed as late stage erythroblasts at 30 mg/kg, po qd for 3 days and measured at 2 days after treatment discontinuation by flow cytometry. The format is organism-based. To be noted: in vivo, 72 h, time 3 day. (Xenograft models place foreign cells or tissue in a host animal.)

SMILES strings stand for the structures. Calls of active or inactive are those of the source. The rule behind the calls is not given here.

As a reminder, the bioavailability is the share of a dose that reaches the circulation, judged against a reference dose that is usually intravenous.

Sequence of DNA-dependent protein kinase catalytic subunit (P78527 whole entry): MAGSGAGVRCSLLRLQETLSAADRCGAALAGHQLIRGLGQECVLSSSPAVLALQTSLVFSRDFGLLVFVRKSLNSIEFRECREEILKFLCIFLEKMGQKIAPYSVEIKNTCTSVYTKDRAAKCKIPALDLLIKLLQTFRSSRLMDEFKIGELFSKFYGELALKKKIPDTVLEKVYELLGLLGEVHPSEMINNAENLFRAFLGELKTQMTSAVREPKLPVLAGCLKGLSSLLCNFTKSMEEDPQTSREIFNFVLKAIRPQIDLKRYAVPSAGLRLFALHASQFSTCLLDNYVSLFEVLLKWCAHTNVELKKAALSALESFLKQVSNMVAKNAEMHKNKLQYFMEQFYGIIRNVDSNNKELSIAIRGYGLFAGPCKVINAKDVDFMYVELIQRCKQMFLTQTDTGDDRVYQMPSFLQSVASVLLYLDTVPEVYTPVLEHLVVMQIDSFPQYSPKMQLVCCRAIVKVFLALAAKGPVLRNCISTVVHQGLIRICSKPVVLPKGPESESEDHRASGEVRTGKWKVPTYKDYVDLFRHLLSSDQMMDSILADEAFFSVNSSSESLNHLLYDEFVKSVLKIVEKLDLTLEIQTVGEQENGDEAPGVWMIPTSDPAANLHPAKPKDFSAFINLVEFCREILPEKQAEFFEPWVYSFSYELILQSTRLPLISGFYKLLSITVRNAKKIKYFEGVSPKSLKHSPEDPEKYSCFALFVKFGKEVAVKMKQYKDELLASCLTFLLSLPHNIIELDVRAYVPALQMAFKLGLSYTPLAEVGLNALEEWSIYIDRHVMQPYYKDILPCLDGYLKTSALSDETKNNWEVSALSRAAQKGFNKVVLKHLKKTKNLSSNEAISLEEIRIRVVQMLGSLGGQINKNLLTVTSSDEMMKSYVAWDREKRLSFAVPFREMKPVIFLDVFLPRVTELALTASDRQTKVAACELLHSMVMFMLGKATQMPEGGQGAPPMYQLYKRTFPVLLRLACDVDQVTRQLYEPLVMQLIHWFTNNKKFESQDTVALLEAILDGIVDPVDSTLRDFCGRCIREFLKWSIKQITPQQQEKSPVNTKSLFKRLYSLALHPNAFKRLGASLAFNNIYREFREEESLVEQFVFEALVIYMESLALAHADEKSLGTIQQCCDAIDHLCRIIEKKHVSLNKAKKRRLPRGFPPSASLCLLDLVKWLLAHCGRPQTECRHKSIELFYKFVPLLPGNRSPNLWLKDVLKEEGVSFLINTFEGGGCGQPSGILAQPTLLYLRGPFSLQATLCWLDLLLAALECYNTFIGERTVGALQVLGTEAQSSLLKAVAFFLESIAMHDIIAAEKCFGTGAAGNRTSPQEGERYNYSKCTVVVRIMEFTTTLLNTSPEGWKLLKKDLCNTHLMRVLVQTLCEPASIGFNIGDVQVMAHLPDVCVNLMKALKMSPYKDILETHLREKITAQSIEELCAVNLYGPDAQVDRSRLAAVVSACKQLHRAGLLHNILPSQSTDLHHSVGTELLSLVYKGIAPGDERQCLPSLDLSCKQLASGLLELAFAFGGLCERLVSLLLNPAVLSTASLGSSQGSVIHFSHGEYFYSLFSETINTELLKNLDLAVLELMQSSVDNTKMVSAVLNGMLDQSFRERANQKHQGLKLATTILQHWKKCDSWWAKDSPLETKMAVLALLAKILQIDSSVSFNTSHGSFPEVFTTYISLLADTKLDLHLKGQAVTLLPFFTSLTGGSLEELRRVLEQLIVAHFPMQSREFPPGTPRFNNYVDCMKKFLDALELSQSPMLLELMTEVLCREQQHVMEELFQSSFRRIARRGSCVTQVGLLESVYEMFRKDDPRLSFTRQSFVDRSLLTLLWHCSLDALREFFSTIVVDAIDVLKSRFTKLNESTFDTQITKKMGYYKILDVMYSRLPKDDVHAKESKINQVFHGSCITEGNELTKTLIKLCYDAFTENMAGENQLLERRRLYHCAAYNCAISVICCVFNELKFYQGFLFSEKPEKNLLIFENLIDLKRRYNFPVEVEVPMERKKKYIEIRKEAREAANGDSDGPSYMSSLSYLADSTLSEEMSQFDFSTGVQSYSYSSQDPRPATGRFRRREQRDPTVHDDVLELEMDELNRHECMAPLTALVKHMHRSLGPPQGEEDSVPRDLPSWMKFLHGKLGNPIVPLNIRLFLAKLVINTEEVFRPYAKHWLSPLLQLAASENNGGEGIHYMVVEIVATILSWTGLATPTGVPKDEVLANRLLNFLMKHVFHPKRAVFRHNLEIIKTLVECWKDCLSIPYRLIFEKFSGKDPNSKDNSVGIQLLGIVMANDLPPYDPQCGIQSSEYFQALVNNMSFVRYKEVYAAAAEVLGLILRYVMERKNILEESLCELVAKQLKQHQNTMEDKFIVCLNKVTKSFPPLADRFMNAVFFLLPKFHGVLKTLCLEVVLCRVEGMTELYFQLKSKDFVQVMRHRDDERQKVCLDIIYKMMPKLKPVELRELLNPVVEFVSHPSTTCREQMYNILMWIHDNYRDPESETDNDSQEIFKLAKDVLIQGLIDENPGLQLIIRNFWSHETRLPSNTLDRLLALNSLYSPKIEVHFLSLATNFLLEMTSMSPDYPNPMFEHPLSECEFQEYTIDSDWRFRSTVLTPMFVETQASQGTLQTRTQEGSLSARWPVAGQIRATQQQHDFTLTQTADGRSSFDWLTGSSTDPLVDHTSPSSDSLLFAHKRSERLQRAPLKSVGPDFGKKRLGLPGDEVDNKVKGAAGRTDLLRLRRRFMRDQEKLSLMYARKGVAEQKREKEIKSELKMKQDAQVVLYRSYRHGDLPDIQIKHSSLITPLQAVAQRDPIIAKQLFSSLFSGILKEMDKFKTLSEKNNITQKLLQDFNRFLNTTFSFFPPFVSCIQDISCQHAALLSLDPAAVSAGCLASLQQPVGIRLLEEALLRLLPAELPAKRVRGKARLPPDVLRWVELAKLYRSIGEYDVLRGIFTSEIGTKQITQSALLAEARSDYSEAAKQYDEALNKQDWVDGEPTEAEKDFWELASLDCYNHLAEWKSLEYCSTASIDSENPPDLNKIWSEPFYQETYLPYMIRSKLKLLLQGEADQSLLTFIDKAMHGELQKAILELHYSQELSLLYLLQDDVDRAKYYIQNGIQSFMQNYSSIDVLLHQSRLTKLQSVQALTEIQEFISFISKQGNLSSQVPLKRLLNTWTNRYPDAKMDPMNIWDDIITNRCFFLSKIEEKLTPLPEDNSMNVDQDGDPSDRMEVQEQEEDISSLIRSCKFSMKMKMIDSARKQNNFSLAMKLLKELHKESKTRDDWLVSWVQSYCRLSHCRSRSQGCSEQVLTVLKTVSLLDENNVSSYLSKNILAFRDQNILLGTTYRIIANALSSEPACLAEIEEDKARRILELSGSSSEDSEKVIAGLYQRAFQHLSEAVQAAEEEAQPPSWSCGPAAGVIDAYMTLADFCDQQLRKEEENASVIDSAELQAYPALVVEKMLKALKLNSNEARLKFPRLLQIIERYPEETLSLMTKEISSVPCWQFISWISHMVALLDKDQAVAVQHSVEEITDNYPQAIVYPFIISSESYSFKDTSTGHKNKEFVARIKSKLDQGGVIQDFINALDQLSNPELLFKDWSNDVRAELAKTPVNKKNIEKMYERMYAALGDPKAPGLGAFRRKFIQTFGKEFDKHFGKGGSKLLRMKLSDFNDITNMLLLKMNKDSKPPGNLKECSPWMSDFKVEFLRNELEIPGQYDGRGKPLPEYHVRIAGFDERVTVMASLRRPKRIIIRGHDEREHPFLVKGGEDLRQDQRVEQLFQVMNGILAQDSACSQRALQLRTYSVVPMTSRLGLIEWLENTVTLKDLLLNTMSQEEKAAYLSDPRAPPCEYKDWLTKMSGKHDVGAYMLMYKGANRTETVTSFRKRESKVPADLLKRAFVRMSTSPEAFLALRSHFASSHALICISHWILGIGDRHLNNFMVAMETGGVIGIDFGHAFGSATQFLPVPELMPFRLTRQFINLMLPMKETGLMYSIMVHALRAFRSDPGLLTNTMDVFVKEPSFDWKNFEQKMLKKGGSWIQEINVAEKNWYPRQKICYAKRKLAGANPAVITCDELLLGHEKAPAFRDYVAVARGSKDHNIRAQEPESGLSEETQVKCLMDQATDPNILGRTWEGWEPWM

In the case of `C[C@@H]1COCCN1c1cc([C@]2(O)C[C@H]3CC[C@@H](C2)O3)c2cnn(-c3cc[nH]n3)c2n1` [CAMONSERTIB], in data set [1], the inhibition entry is “Active”. Further, in data set [2], the bioavailability stood at 45%. Further, the Activity entry in data set [3] and in data set [5] was “Non-Toxic” throughout. Besides, the microsomal CLint at 1 µM in data set [4] came out at 25 µL/min/mg.

The values are drawn from ChEMBL document CHEMBL5505970 (J Med Chem, 2024).
